Results reported in ChEMBL document CHEMBL1132744, “Synthesis and antiproliferative activity of some benzimidazole-4,7-dione derivatives” (Bioorg Med Chem Lett, 2000).

Tests used:
MCF7 = assay: Antiproliferative activity of compound was evaluated on MCF-7 cells from human breast adenocarcinoma; format: functional; settings: read-out: ID50 (the source's name)
[1] = Antiproliferative activity of compound was evaluated on Molt3 cells from human lymphoblastic leukemia; format: functional; settings: MOLT-3, read-out: ID50 (the source's name)
[2] = Antiproliferative activity of compound was evaluated on SupT1 cells from human non-Hodgkin lymphoma; format: functional; settings: SUP-T1, read-out: ID50 (the source's name)
[3] = The compound was evaluated for cytotoxicity against VERO cells using Dye test at a concentration 0.7 uM; format: cell-based; settings: chlorocebus sabaeus, read-out: Cellular growth
[4] = The compound was evaluated for cytotoxicity against VERO cells using Dye test at a concentration 11.2 uM; format: cell-based; settings: chlorocebus sabaeus, read-out: Cellular growth
[5] = The compound was evaluated for cytotoxicity against VERO cells using Dye test at a concentration 90 uM; format: cell-based; settings: chlorocebus sabaeus, read-out: Cellular growth
Vero [6] = assay: The compound was evaluated for cytotoxicity against VERO cells using Lowry's test at a concentration 0.7 uM; format: cell-based; settings: chlorocebus sabaeus
Vero [7] = assay: The compound was evaluated for cytotoxicity against VERO cells using Lowry's test at a concentration 11.2 uM; format: cell-based; settings: chlorocebus sabaeus
Vero [8] = assay: The compound was evaluated for cytotoxicity against VERO cells using Lowry's test at a concentration 90 uM; format: cell-based; settings: chlorocebus sabaeus

Row | SMILES | IC50 (MCF7) | IC50 [1] | IC50 [2] | viability at 0.7 µM [3] | viability at 11.2 µM [4] | viability at 90 µM [5] | Protein content (Vero [6]) | Protein content (Vero [7]) | Protein content (Vero [8])
1 | CSc1nc2c([nH]1)C(=O)C(=N)C=C2O | > 90 µM | 60.4 µM | 10.8 µM |  |  |  |  |  | 
2 | CSc1nc2c([nH]1)C(=O)C=C(Br)C2=O | 62.8 µM | 32.1 µM | 5.03 µM |  |  |  |  |  | 
3 | O=C1C(Br)=CC(=O)c2[nH]c(-c3ccccn3)nc21 | > 90 µM | 7.52 µM | 5.57 µM |  |  |  |  |  | 
4 | CSc1nc2c([nH]1)C(=O)/C(=N/CCCl)C=C2O | > 90 µM | 30.6 µM | 15.3 µM |  |  |  |  |  | 
5 | CSc1nc2c([nH]1)C(=O)C(Br)=C(Br)C2=O | 40.3 µM | 12 µM | 6.26 µM |  |  |  |  |  | 
6 | CSc1nc2c([nH]1)C(=O)C=CC2=O | 62.6 µM | 1.32 µM | 2.87 µM | 99.3% | 101% | 73.6% | 102.9% | 86.4% | 68.9%
7 | CSc1nc2c([nH]1)C(=O)C=C(N(C)C)C2=O | > 90 µM | 18.3 µM | 38 µM |  |  |  |  |  | 
8 | COC1=CC(=O)c2[nH]c(-c3ccccn3)nc2C1=O | 26.4 µM | 2.63 µM | 2.57 µM | 114% | 71.2% | 16.4% | 97.2% | 81.3% | 16.2%
9 | CN(C)C1=CC(=O)c2[nH]c(-c3ccccn3)nc2C1=O | > 90 µM | 22.4 µM | 17.4 µM |  |  |  |  |  | 
10 | NC1=CC(=O)c2[nH]c(-c3ccccn3)nc2C1=O | > 90 µM | 39.7 µM | 29.3 µM |  |  |  |  |  | 
11 | COC1=CC(=O)c2[nH]c(SC)nc2C1=O | 36 µM | 20.8 µM | 5.07 µM |  |  |  |  |  | 
12 | CO[C@@]12[C@H](COC(N)=O)C3=C(C(=O)C(C)=C(N)C3=O)N1C[C@@H]1N[C@@H]12 [MITOMYCIN] | 42.9 µM | 2.66 µM | < 0.7 µM |  |  |  |  |  | 
